As a reminder, the IC50 is the concentration at which inhibition is half-maximal. A word on the logP: it is the decadic logarithm of the partition coefficient of the neutral form, usually between octanol and water. Higher therefore signals higher lipophilicity. For orientation: Tmax means the time from dosing to the highest level. As usually defined, the Cmax is the peak of the concentration-time curve. In general, AUC(0-inf) refers to total exposure, with the tail of the curve extrapolated. High values mean high exposure, low ones low exposure. What is called half-life is the time needed for the level to fall by half in the phase considered. For orientation: clearance means the rate of elimination divided by the concentration. Low readings indicate inefficient removal, high ones efficient removal. A word on the Vd: it is a proportionality between amount in the body and measured concentration, not a real space. Lower therefore signals confinement near the circulation.

The source made the active and inactive calls.

We go through nine compounds from ChEMBL document CHEMBL5584248, “Synthesis and biological characterization of an orally bioavailable lactate dehydrogenase-A inhibitor against pancreatic cancer” (Eur J Med Chem, 2024).

For data set [1], the target named is L-lactate dehydrogenase A chain (Homo sapiens, UniProt P00338). Put plainly: Inhibition of human LDH-A incubated for 10 mins in presence of […] by fluorescence based reader assay.
Data set [2] is described as follows: Oral bioavailability in CD1 mouse at 5 mg/kg. The data set is classed as ADME, organism-based. Particulars: in vivo.
The test system of data set [3] is MIA PaCa-2. As to the kind of experiment: Reduction in lactate production in human MIA PaCa-2 cells incubated for 6 hrs by colorimetric assay. The data set is classed as functional, cell-based. Particulars: dose 15-30 µM.
For data set [4], the system named is MIA PaCa-2. As to the kind of experiment: Reduction in intracellular lactate production in human MIA PaCa-2 cells at 15 uM incubated for 6 to 24 hrs by colorimetric assay. The data set is classed as functional, cell-based. Particulars: time 6-24 hrs.
The subject of data set [5] is MIA PaCa-2. As to the kind of experiment: Reduction in citric acid level in human MIA PaCa-2 cells at 15 uM incubated for 24 hrs by UPLC-MS analysis. Format: functional, cell-based.
The subject of data set [6] is MIA PaCa-2. As to the kind of experiment: Reduction in isocitric acid level in human MIA PaCa-2 cells at 15 uM incubated for 24 hrs by UPLC-MS analysis. Format: functional, cell-based.
In data set [7] the test system is MIA PaCa-2. Put plainly: Reduction in succinic acid level in human MIA PaCa-2 cells at 15 uM incubated for 6 hrs by UPLC-MS analysis. Format: functional, cell-based.
The subject of data set [8] is MIA PaCa-2. As to the kind of experiment: Reduction in pyruvate level in human MIA PaCa-2 cells at 15 uM incubated for 6 to 24 hrs by UPLC-MS analysis. The data set is classed as functional, cell-based. Particulars: time 6-24 hrs.
Data set [9] concerns MIA PaCa-2. As to the kind of experiment: Inhibition of basal glycolysis in human MIA PaCa-2 cells at 10 to 30 uM. The data set is classed as functional, cell-based. Particulars: dose 10-30 µM.
Data set [10] concerns MIA PaCa-2. Put plainly: Inhibition of compensatory glycolysis in human MIA PaCa-2 cells at 10 to 30 uM. Particulars: dose 10-30 µM. Format: functional, cell-based.
Data set [11] concerns MIA PaCa-2. As to the kind of experiment: Reduction in total ATP production rate in human MIA PaCa-2 cells at 15 to 30 uM incubated for 24 hrs by Seahorse assay. The data set is classed as functional, cell-based. Particulars: dose 15-30 µM.
Data set [12] deals with MIA PaCa-2. As to the kind of experiment: Reduction in glycolytic ATP production rate in human MIA PaCa-2 cells at 15 to 30 uM incubated for 24 hrs by Seahorse assay. Particulars: dose 15-30 µM. Format: functional, cell-based.
Data set [13] concerns MIA PaCa-2. Put plainly: Reduction in total ATP production in human MIA PaCa-2 cells at 15 to 30 uM incubated for 48 hrs by Celltiter-glo assay. Particulars: dose 15-30 µM. Format: functional, cell-based. (In ATP-based viability assays light output follows the ATP content of the culture.)
Data set [14] has as its system MIA PaCa-2. As to the kind of experiment: Reduction in total ATP production in human MIA PaCa-2 cells at 10 uM incubated for 48 hrs by Celltiter-glo assay. The data set is classed as functional, cell-based.
Data set [15] relates to MIA PaCa-2. Put plainly: Antiproliferative activity against human MIA PaCa-2 cells incubated for 48 hrs by Hoechst 33342 and SYTOX green staining based confocal imaging analysis. Particulars: MIA PaCa-2, 48 h. Format: functional, cell-based.
A short description of data set [16]: Cytotoxicity against HPNEs incubated for 48 hrs by Hoechst 33342 and SYTOX green staining based confocal imaging analysis. Particulars: human, HPNE cells. Format: toxicity, cell-based.
Data set [17] relates to PANC-1. Put plainly: Antiproliferative activity against human PANC-1 cells incubated for 48 hrs by Hoechst 33342 and SYTOX green staining based confocal imaging analysis. Format: functional, cell-based. Particulars: PANC-1, 48 h.
Data set [18] is described as follows: Antiproliferative activity against mouse FC-1199 cells incubated for 48 hrs by Hoechst 33342 and SYTOX green staining based confocal imaging analysis. Format: functional, cell-based. Particulars: FC-1199, 48 h.
Data set [19] deals with MIA PaCa-2. As to the kind of experiment: Synergistic antiproliferative activity against human MIA PaCa-2 cells at 20 uM incubated for 48 hrs in presence of phenformin by fluorescence based confocal imaging analysis. Format: functional, cell-based.
Data set [20] has as its system Pancreatic cancer organoid. As to the kind of experiment: Antiproliferative activity against human Pancreatic cancer organoid after 72 hrs by MTS assay. Format: functional, tissue-based.
A short description of data set [21]: Lipophilicity, logP of compound. Format: physicochemical. Particulars: octanol/water.
Data set [22] in a line: Thermodynamic solubility in PBS at pH 7.4. Format: physicochemical. Particulars: buffer.
Data set [23] is described as follows: Metabolic stability in human liver microsomes assessed as compound remaining after 10 mins. Format: ADME, Microsome. Particulars: read-out: Stability. Background: Liver microsomes are vesicles of endoplasmic reticulum, rich in cytochrome P450 enzymes.
Data set [24] is described as follows: Metabolic stability in mouse liver microsomes assessed as compound remaining after 10 mins. The data set is classed as ADME, Microsome. Particulars: read-out: Stability.
A short description of data set [25]: Metabolic stability in human liver microsomes assessed as compound remaining after 20 mins. The data set is classed as ADME, Microsome. Particulars: read-out: Stability.
Data set [26] in a line: Metabolic stability in mouse liver microsomes assessed as compound remaining after 20 mins. The data set is classed as ADME, Microsome. Particulars: read-out: Stability.
A short description of data set [27]: Metabolic stability in human liver microsomes assessed as compound remaining after 30 mins. The data set is classed as ADME, Microsome. Particulars: read-out: Stability.
A short description of data set [28]: Metabolic stability in mouse liver microsomes assessed as compound remaining after 30 mins. Format: ADME, Microsome. Particulars: read-out: Stability.
A short description of data set [29]: Metabolic stability in human liver microsomes assessed as compound remaining after 60 mins. Format: ADME, Microsome. Particulars: read-out: Stability.
A short description of data set [30]: Metabolic stability in mouse liver microsomes assessed as compound remaining after 60 mins. The data set is classed as ADME, Microsome. Particulars: read-out: Stability.
A short description of data set [31]: Metabolic stability in human liver microsomes assessed as half-life. Format: ADME, Microsome.
The nature of data set [32]: Metabolic stability in mouse liver microsomes assessed as half-life. The data set is classed as ADME, Microsome.
Data set [33] in a line: Metabolic stability in human liver microsomes assessed as intrinsic clearance per mg protein. The data set is classed as ADME, Microsome.
Data set [34] is described as follows: Metabolic stability in mouse liver microsomes assessed as intrinsic clearance per mg protein. Format: ADME, Microsome.
The nature of data set [35]: Tmax in CD1 mouse at 5 mg/kg, po. The data set is classed as ADME, organism-based. Particulars: in vivo.
The nature of data set [36]: Cmax in CD1 mouse at 1 mg/kg, iv. Particulars: in vivo. Format: ADME, organism-based.
Data set [37] can be described thus: Cmax in CD1 mouse at 5 mg/kg, po. The data set is classed as ADME, organism-based. Particulars: in vivo.
A short description of data set [38]: AUC(0 to infinity) in CD1 mouse at 1 mg/kg, iv. Particulars: in vivo. The data set is classed as ADME, organism-based.
Data set [39] is described as follows: AUC(0 to infinity) in CD1 mouse at 5 mg/kg, po. Format: ADME, organism-based. Particulars: in vivo.
A short description of data set [40]: Half-life in CD1 mouse at 1 mg/kg, iv. The data set is classed as ADME, organism-based. Particulars: in vivo.
Data set [41] in a line: Half-life in CD1 mouse at 5 mg/kg, po. The data set is classed as ADME, organism-based. Particulars: in vivo.
Data set [42] is described as follows: Clearance in CD1 mouse at 1 mg/kg, iv. The data set is classed as ADME, organism-based. Particulars: mouse, in vivo, iv, 1 mg/kg.
A short description of data set [43]: Volume of distribution in CD1 mouse at 1 mg/kg, iv. Format: ADME, organism-based. Particulars: in vivo.
The target of data set [44] is L-lactate dehydrogenase B chain (Homo sapiens, UniProt P07195). Put plainly: Inhibition of human LDH-B incubated for 10 mins in presence of […] by fluorescence based reader assay.
Sequence of L-lactate dehydrogenase B chain (P07195 whole entry): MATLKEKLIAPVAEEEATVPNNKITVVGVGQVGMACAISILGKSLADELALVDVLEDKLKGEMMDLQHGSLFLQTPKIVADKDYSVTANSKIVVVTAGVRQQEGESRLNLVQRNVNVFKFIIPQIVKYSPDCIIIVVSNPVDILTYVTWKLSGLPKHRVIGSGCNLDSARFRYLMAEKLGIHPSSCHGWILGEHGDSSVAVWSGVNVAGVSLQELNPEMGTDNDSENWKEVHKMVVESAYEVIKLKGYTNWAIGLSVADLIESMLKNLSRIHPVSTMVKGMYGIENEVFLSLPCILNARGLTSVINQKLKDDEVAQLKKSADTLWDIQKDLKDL

For `COC(=O)C(CC(=O)Nc1ccc(N2CCN(C)CC2)cc1)c1ccc(C(F)(F)F)cc1` (stereo not drawn), the IC50 in data set [1] worked out at 66.4 µM.

As to `Cn1ccnc1C(=O)c1ccc(NC(=O)CC(C(=O)O)c2ccc(C(F)(F)F)cc2)cc1` (stereo not drawn), the F in [2] turned out to be 33%. Moreover, the Activity result in [3] was “Dose-Dependent Effect”. Also, the outcome in data set [4], in data set [5], in data set [6], in [7], in [8] and in data set [11] was Active. For the same compound, the outcome in [12], in data set [13] and in data set [19] was Active. Moreover, the inhibition entry in [9] and in [10] was “Active” throughout. In addition, the result in data set [14] was inactive. Also, the IC50 in [15] worked out at 14.1 µM; in data set [17], 43.3 µM; in data set [18], 20.8 µM; in [20], 32.3 µM. Moreover, the half-inhibitory concentration (IC50) at 48 h in [16] is above 50 µM. The logP in [21] was found to be 2.47. Besides, the Therm_solubility in data set [22] is 7685 µg/mL. The remaining at 10 min in [23] turned out to be 95.5%; in data set [24] it was 98.6%. Further, the remaining at 20 min in data set [25] worked out at 94.8%; in data set [26], 96%. In addition, the remaining at 0.5 h in [27] was found to be 90.5%; in [28], 98%. Also, the results for the remaining at 1 h in data set [29] and in [30] were 75.6% and 88.4%, respectively. In addition, the t1/2 in data set [31] and in data set [32] was above 1 h in each case. For the same compound, the CLint in [33] and in data set [34] was below 23 µL/min/mg in each case. Besides, the time to peak (Tmax) in data set [35] is 0.5 h. Besides, the figures for the peak concentration (Cmax) in [36] and in data set [37] were 21.2 µM and 10.4 µM, respectively. Moreover, the AUC(0-inf) in data set [38] turned out to be 10 µM·h; in data set [39], 36.4 µM·h. Further, the half-life was 2.9 h in [40] and 2.4 h in [41]. Also, the clearance in data set [42] is 110 mL/min/kg. In data set [43], this compound showed a volume of distribution (Vd) of 0.9 L/kg.

In the case of `O=C(O)CC(NC(=O)c1ccccc1Cl)c1cccc(Cl)c1` (stereo not drawn), the concentration for half-maximal inhibition (IC50) in data set [1] and in data set [44] was above 100 µM in each case.

On to `O=C(CC(C(=O)O)c1ccc(C(F)(F)F)cc1)Nc1ccc(N2CCOCC2)c(Cl)c1` (stereo not drawn), for which the IC50 in data set [1] and in [44] was above 100 µM in each case.

For the compound `COC(=O)C(CC(=O)Nc1ccc(C(=O)c2nccn2C)cc1)c1ccc(OC)cc1` (stereo not drawn), the IC50 in [1] was 50 µM.

In the case of `COC(=O)C(CC(=O)Nc1ccc(N2CCOCC2)c(F)c1)c1ccc(C(F)(F)F)cc1` (stereo not drawn), the IC50 in data set [1] is 71.5 µM.

Take `O=C(O)CC(NC(=O)CCc1ccccc1)c1cccc(Cl)c1` (stereo not drawn): the half-maximal inhibitory concentration (IC50) in [1] and in [44] was above 100 µM throughout.

Consider `COC(=O)C(CC(=O)Nc1ccc(C(=O)c2nccn2C)cc1)c1ccc(F)cc1` (stereo not drawn), for which, in [1], the IC50 is 37.8 µM.

Turning to `Cn1ccnc1C(=O)c1ccc(NC(=O)CC(C(=O)O)c2ccc(Cl)cc2)cc1` (stereo not drawn), in data set [1], the 50% inhibitory concentration (IC50) is 0.19 µM.
